Experimental data published in patent US20240226343A1, “NEUROPEPTIDE Y1 RECEPTOR (NPY1R) TARGETED THERAPEUTICS AND USES THEREOF” (RADIONETICS ONCOLOGY, INC., priority 2022, published 2024).
Read-outs that look alike come from different tables or passages of the source.

Molecular target: T1, hNPY1R (Homo sapiens, UniProt P25929)
T1 construct: SK-N-MC cells endogenously expressing the NPY1R receptor; endogenous in cells; host or cells: SK-N-MC cells (crude membrane fractions)
T1 sequence (P25929 1-384): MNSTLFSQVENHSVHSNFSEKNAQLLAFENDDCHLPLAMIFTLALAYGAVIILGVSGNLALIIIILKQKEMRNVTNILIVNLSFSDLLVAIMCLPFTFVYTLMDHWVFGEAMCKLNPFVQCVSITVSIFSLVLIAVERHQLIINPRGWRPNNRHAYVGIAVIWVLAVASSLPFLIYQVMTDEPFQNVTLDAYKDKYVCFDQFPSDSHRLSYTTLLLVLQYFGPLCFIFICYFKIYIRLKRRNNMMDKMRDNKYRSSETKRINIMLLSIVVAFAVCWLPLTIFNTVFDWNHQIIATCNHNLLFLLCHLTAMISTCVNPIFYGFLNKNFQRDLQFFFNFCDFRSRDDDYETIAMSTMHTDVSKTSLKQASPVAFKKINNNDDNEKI
Experiment: NPY1R binding assay: SK-N-MC membranes, [125I]-Peptide YY (human) competition
Settings: SK-N-MC membranes

[1] = data obtained after 120 minutes at rt, [125I]-Peptide YY, read-out: hNPY.R binding Ki* ††
[2] = data obtained after 60 minutes at 37° C., [125I]-Peptide YY 0.05 nM, read-out: hNPY1R binding Ki* †

Ki [1] [nM] | Ki [2] [nM] | SMILES
< 10 |  | CCC(=O)NCCNC(=O)/N=C(/N)NCCC[C@@H](NC(=O)C(c1ccccc1)c1cccc(OCCCCNC(=O)[C@@H](CO)NC(=O)CCNC(=O)CN2CCN(CC(=O)O)CCN(CC(=O)O)CCN(CC(=O)O)CC2)c1)C(=O)NCc1c(F)cc(O)cc1F (single isomer, unassigned) [Compound 165A]
 | < 10 | CCC(=O)NCCNC(=O)/N=C(/N)NCCC[C@@H](NC(=O)C(c1ccccc1)c1cccc(OCCOCCNC(=O)CN2CCN(CC(=O)O)CCN(CC(=O)O)CCN(CC(=O)O)CC2)c1)C(=O)NCc1ccc(O)cc1 (stereo partly drawn) [Compound 106, 2,2′,2″-(10-(2-((2-(2-(3-((4R,Z)-9-amino-4-((4-hydroxybenzyl)carbamoyl)-2,11,16-trioxo-1-phenyl-3,8,10,12,15-pentaazaoctadec-9-en-1-yl)phenoxy)ethoxy)ethyl)amino)-2-oxoethyl)-1,4,7,10-tetraazacyclododecane-1,4,7-triyl)triacetic acid]
10 to 100 | 10 to 100 | CCC(=O)NCCNC(=O)/N=C(/N)NCCC[C@@H](NC(=O)C(c1ccccc1)c1cccc(OCCCCNC(=O)CCC(=O)N(CC(=O)O)C2CCN(C(=O)CN3CCN(CC(=O)O)CCN(CC(=O)O)CCN(CC(=O)O)CC3)CC2)c1)C(=O)NCc1ccc(O)cc1 (single isomer, unassigned) [Compound 117A]
< 10 |  | CCC(=O)NCCNC(=O)/N=C(/N)NCCC[C@@H](NC(=O)C(c1ccccc1)c1cccc(OCCCCNc2c(NCCNC(=O)[C@@H](CCCCN)NC(=O)CN3CCN(CC(=O)O)CCN(CC(=O)O)CCN(CC(=O)O)CC3)c(=O)c2=O)c1)C(=O)NCc1ccc(O)cc1 (stereo in doubt) [Compound 116B-In, indium (III) 2,2′,2″-(10-(2-((6-amino-1-((2-((2-((4-(3-((R,Z)-9-amino-4-((4-hydroxybenzyl)carbamoyl)-2,11,16-trioxo-1-phenyl-3,8,10,12,15-pentaazaoctadec-9-en-1-yl)phenoxy)butyl)amino)-3,4-dioxocyclobut-1-en-1-yl)amino)ethyl)amino)-1-oxohexan-2-yl)amino)-2-oxoethyl)-1,4,7,10-tetraazacyclododecane-1,4,7-triyl)triacetate]
< 10 |  | CCC(=O)NCCNC(=O)/N=C(/N)NCCC[C@@H](NC(=O)C(c1ccccc1)c1ccc(NCCCNC(=O)[C@H](N)CCCNC(=O)CN2CCC(NC(=O)CN3CCN(CC(=O)O)CCN(CC(=O)O)CCN(CC(=O)O)CC3)CC2)cc1)C(=O)NCc1ccc(O)cc1 (single isomer, unassigned) [Compound 146A]
 | < 10 | CCC(=O)NCCNC(=O)/N=C(/N)NCCC[C@@H](NC(=O)C(c1ccccc1)c1cccc(OCCOCCOCCNC(=O)CN2CCN(CC(=O)O)CCN(CC(=O)O)CCN(CC(=O)O)CC2)c1)C(=O)NCc1ccc(O)cc1 (stereo partly drawn) [Compound 105, 2,2′,2″-(10-(2-((2-(2-(2-(3-((4R,Z)-9-amino-4-((4-hydroxybenzyl)carbamoyl)-2,11,16-trioxo-1-phenyl-3,8,10,12,15-pentaazaoctadec-9-en-1-yl)phenoxy)ethoxy)ethoxy)ethyl)amino)-2-oxoethyl)-1,4,7,10-tetraazacyclododecane-1,4,7-triyl)triacetic acid]
< 10 |  | CCC(=O)NCCNC(=O)/N=C(/N)NCCC[C@@H](NC(=O)C(c1ccccc1)c1cccc(OCCCCNc2c(NCCNC(=O)[C@@H](CCCCN)NC(=O)CN3CCN(CC(=O)O)CCN(CC(=O)O)CCN(CC(=O)O)CC3)c(=O)c2=O)c1)C(=O)NCc1ccc(O)cc1 (single isomer, unassigned) [Compound 116A]

Further lines, the molecule ahead of its results:

SMILES | Ki [1] [nM] | Ki [2] [nM]
CCNC(=O)/N=C(/N)NCCC[C@@H](NC(=O)C(c1ccccc1)c1cccc(OCCCCNC(=O)[C@@H](Cc2ccc(-c3ccccc3)cc2)NC(=O)[C@@H](CN)NC(=O)CN2CCN(CC(=O)O)CCN(CC(=O)O)CCN(CC(=O)O)CC2)c1)C(=O)NCc1ccc(O)cc1 (single isomer, unassigned) [Compound 148A] | < 10 | 
CCC(=O)NCCNC(=O)/N=C(/N)NCCC[C@@H](NC(=O)C(c1ccccc1)c1ccc(NCCCNC(=O)[C@H](N)CCCCNC(=O)CN2CCN(CC(=O)O)CCN(CC(=O)O)CCN(CC(=O)O)CC2)cc1)C(=O)NCc1ccc(O)cc1 (single isomer, unassigned) [Compound 132B] | < 10 | 
CCC(=O)NCCNC(=O)/N=C(/N)NCCC[C@@H](NC(=O)C(c1ccccc1)c1cccc(OCCCCNC(=O)CCC(NC(=O)CN2CCN(CC(=O)O)CCN(CC(=O)O)CCN(CC(=O)O)CC2)C(=O)O)c1)C(=O)NCc1ccc(O)cc1 (single isomer, unassigned) [Compound 110A] |  | 10 to 100
CCC(=O)NCCNC(=O)/N=C(/N)NCCC[C@@H](NC(=O)C(c1ccccc1)c1ccc(NCCCNc2c(NCCCCCCNC(=O)CN3CCN(CC(=O)O)CCN(CC(=O)O)CCN(CC(=O)O)CC3)c(=O)c2=O)cc1)C(=O)NCc1ccc(O)cc1 (single isomer, unassigned) [Compound 156] | < 10 | 
CCC(=O)NCCNC(=O)/N=C(/N)NCCC[C@@H](NC(=O)C(c1ccccc1)c1cccc(OCCCCNC(=O)NCCONC(=O)CN2CCN(CC(=O)O)CCN(CC(=O)O)CCN(CC(=O)O)CC2)c1)C(=O)NCc1c(F)cc(O)cc1F (single isomer, unassigned) [Compound 168] | < 10 | 
CCC(=O)NCCNC(=O)/N=C(/N)NCCC[C@@H](NC(=O)C(c1ccccc1)c1cccc(OCCCCNC(=O)C[C@H]2NC(=O)[C@@H](CCCNC(=O)CN3CCN(CC(=O)O)CCN(CC(=O)O)CCN(CC(=O)O)CC3)NC2=O)c1)C(=O)NCc1c(F)cc(O)cc1F (single isomer, unassigned) [Compound 164B] | < 10 | 
CCC(=O)NCCNC(=O)/N=C(/N)NCCC[C@@H](NC(=O)C(c1ccccc1)c1cccc(OCCCCNC(=O)CN2CCN(C(=O)CN3CCN(CC(=O)O)CCN(CC(=O)O)CCN(CC(=O)O)CC3)CC2)c1)C(=O)NCc1ccc(O)cc1 (single isomer, unassigned) [Compound 118A] | < 10 | < 10
CCC(=O)NCCNC(=O)/N=C(/N)NCCC[C@@H](NC(=O)C(c1ccccc1)c1ccc(NCCCNC(=O)CN(C)C(=O)CN(C)C(=O)CN(C)C(=O)CN2CCN(CC(=O)O)CCN(CC(=O)O)CCN(CC(=O)O)CC2)cc1)C(=O)NCc1ccc(O)cc1 (single isomer, unassigned) [Compound 159] | < 10 | 
CCC(=O)NCCNC(=O)/N=C(/N)NCCC[C@@H](NC(=O)C(c1ccccc1)c1ccc(OCCCNc2c(NCCNC(=O)CN3CCN(CC(=O)O)CCN(CC(=O)O)CCN(CC(=O)O)CC3)c(=O)c2=O)cc1)C(=O)NCc1ccc(O)cc1 (single isomer, unassigned) [Compound 136B] | < 10 | 
CCC(=O)NCCNC(=O)/N=C(/N)NCCC[C@@H](NC(=O)C(c1ccccc1)c1cccc(OCCCCNC(=O)[C@@H](CCCN)NC(=O)CCNC(=O)CN2CCN(CC(=O)O)CCN(CC(=O)O)CCN(CC(=O)O)CC2)c1)C(=O)NCc1ccc(O)cc1 (single isomer, unassigned) [Compound 147A] | < 10 | 
